One assay has as its target CDK6/Cyclin D3 (Homo sapiens (Human), UniProt Q00534). Put plainly: CDK6/Cyclin D3 kinase TR-FRET inhibition assay. The format is biochemical. The following applies: 1 mM ATP, Rb (Ser780)-biotin substrate, read-out: CDK6D3 IC50. The method, then:
(§1) Compounds disclosed herein were tested for inhibition of CDK4/Cyclin D1 or CDK6/Cyclin D3 kinase in an assay based on the time-resolved fluorescence-resonance energy transfer (TR-FRET) methodology. The assay was carried out in 384-well low volume black plates in a reaction mixture containing CDK4/Cyclin D1 or CDK6/Cyclin D3, 1 mM ATP, 0.15 μM Rb (Ser780)-biotin substrate and 0-10 μM compound in buffer containing 50 mM HEPES pH7.0, 0.02% NaN3, 0.01% BSA, 0.1 mM Orthovanadate, 50 mM MgCl2, 1 mM DTT and 0.005% Tween-20. The kinase was incubated with compound for 60 minutes at room temperature and the reaction was initiated by the addition of ATP and Rb (Ser780)-biotin substrate. After reaction at room temperature for 120 minutes, an equal volume of stop/detection solution was added according to the manufacture's instruction (Cisbio Bioassays). The stop/detection solution contained Streptavidin-XL665 and Anti-pRb (Ser780) mAb-Eu Cryptate in Detection buffer (Cisbio Bioassays). Plates were incubated at room temperature for 60 minutes, and the TR-FRET signals (ex337 nm, em665 nm/620 nm) were recorded on a PHERAstar FSX plate reader (BMG Labtech). The inhibition percentage of CDK4/Cyclin D1 or CDK6/Cyclin D3 kinase activity in presence of increasing concentrations of compounds was calculated based on the ratio of fluorescence at 665 nm to that at 620 nm. The IC50 for each compound was derived from fitting the data to the four-parameter logistic equation by Dotmatics.

A further assay deals with CDK4/Cyclin D1 (Homo sapiens (Human), UniProt P11802). Put plainly: CDK4/Cyclin D1 kinase TR-FRET inhibition assay. Conditions: 1 mM ATP, Rb (Ser780)-biotin substrate, read-out: CDK4D1 IC50. The format is biochemical. The method, then: as §1
Sequence of CDK4/Cyclin D1 (P11802 whole entry): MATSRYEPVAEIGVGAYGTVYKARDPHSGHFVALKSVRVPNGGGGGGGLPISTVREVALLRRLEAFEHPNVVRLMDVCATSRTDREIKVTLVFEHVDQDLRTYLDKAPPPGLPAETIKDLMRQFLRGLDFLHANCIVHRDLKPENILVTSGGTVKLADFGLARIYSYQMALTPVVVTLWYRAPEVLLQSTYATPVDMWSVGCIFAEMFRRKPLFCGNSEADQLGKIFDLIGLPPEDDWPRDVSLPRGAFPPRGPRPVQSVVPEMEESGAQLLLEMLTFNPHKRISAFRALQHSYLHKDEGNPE
Sequence of CDK4/Cyclin D1 (P24385 whole entry partner): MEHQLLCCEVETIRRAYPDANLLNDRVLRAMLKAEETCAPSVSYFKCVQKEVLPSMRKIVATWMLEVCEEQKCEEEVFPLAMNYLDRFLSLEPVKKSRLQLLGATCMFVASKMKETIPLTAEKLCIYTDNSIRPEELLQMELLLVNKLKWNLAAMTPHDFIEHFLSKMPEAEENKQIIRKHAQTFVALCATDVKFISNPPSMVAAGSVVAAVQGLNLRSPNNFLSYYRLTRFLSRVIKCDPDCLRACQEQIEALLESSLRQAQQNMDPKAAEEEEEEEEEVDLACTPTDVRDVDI

Sequence of CDK6/Cyclin D3 (Q00534 whole entry): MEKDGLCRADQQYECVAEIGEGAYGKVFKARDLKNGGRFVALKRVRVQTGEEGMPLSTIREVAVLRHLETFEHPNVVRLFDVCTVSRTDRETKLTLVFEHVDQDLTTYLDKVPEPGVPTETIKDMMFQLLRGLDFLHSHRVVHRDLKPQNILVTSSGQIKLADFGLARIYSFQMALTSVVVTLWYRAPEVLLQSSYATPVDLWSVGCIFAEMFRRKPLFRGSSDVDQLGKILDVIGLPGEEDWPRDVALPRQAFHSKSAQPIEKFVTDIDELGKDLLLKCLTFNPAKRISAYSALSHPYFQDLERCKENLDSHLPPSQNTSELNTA
Sequence of CDK6/Cyclin D3 (P30281 whole entry partner): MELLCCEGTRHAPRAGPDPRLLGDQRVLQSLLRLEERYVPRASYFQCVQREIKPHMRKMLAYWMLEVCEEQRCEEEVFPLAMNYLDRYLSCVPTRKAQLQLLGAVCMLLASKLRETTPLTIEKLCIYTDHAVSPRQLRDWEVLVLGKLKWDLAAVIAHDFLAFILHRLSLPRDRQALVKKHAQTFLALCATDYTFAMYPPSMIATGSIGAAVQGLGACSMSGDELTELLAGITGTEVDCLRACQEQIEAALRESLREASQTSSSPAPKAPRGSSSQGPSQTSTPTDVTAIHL

For the compound `CC(C)c1c(C(C)(C)O)cnc2c(F)cc(-c3nc(N[C@@H]4CCOC[C@H]4O)ncc3F)cc12` [Example 67, (3S,4R)-4-((5-fluoro-4-(8-fluoro-3-(2-hydroxypropan-2-yl)-4-isopropylquinolin-6-yl)pyrimidin-2-yl)amino)tetrahydro-2H-pyran-3-ol], the IC50 on CDK6/Cyclin D3 is 42.7 nM; on CDK4/Cyclin D1 it was 2.5 nM.

As to `CC(C)c1c(CN2CCC[C@H](C#N)C2)cnc2ccc(-c3nc(N[C@@H]4CCOC[C@H]4O)ncc3F)cc12` [Example 61, (S)-1-((6-(5-fluoro-2-(((3S,4R)-3-hydroxytetrahydro-2H-pyran-4-yl)amino)pyrimidin-4-yl)-4-isopropylquinolin-3-yl)methyl)piperidine-3-carbonitrile], the figures for the half-inhibitory concentration (IC50) on CDK6/Cyclin D3 and at CDK4/Cyclin D1 were 426 nM and 8.7 nM, respectively.

As to `CC(C)c1c(CN2CC[C@H](F)C2)cnc2ccc(-c3nc(N[C@@H]4CCOC[C@H]4O)ncc3F)cc12` [Example 18, (3S,4R)-4-((5-fluoro-4-(3-(((S)-3-fluoropyrrolidin-1-yl)methyl)-4-isopropylquinolin-6-yl)pyrimidin-2-yl)amino)tetrahydro-2H-pyran-3-ol], the IC50 at CDK6/Cyclin D3 was found to be 598 nM; at CDK4/Cyclin D1 it was 26 nM.

For the compound `CC(C)c1c(CNC2CCC2)cnc2ccc(-c3nc(N[C@@H]4CCOC[C@H]4O)ncc3F)cc12` [Example 19, (3S,4R)-4-((4-(3-((cyclobutylamino)methyl)-4-isopropylquinolin-6-yl)-5-fluoropyrimidin-2-yl)amino)tetrahydro-2H-pyran-3-ol], the IC50 was found to be 1220 nM on CDK6/Cyclin D3 and 20 nM on CDK4/Cyclin D1.

For the compound `CC(C)c1c(CN2CC3CC(C2)O3)cnc2ccc(-c3nc(N[C@@H]4CCOC[C@H]4O)ncc3F)cc12` [Example 14, (3S,4R)-4-((4-(3-((6-oxa-3-azabicyclo[3.1.1]heptan-3-yl)methyl)-4-isopropylquinolin-6-yl)-5-fluoropyrimidin-2-yl)amino)tetrahydro-2H-pyran-3-ol], the IC50 at CDK6/Cyclin D3 was found to be 228 nM; at CDK4/Cyclin D1 it was 12 nM.

As to `CC(C)c1cc(C(C)(C)O)nc2ccc(-c3nc(N[C@@H]4CCOC[C@H]4O)ncc3F)cc12` [Example 206, (3S,4R)-4-((5-fluoro-4-(2-(2-hydroxypropan-2-yl)-4-isopropylquinolin-6-yl)pyrimidin-2-yl)amino)tetrahydro-2H-pyran-3-ol], the values for the IC50 at CDK6/Cyclin D3 and on CDK4/Cyclin D1 were 1500 nM and 185 nM, respectively.

On to `CC(C)c1c(CN2[C@H](C)COC[C@H]2C)cnc2ccc(-c3nc(N[C@@H]4CCOC[C@H]4O)ncc3F)cc12` [Example 69, (3S,4R)-4-((4-(3-(((3R,5R)-3,5-dimethylmorpholino)methyl)-4-isopropylquinolin-6-yl)-5-fluoropyrimidin-2-yl)amino)tetrahydro-2H-pyran-3-ol], for which the IC50 turned out to be 355 nM on CDK6/Cyclin D3 and 8.3 nM on CDK4/Cyclin D1.

In the case of `CC(C)c1c(CO)cnc2ccc(-c3nc(N[C@@H]4CCOC[C@H]4O)ncc3F)cc12` [Example 3, (3S,4R)-4-((5-fluoro-4-(3-(hydroxymethyl)-4-isopropylquinolin-6-yl)pyrimidin-2-yl)amino)tetrahydro-2H-pyran-3-ol], the IC50 amounted to 73.5 nM on CDK6/Cyclin D3 and 4.9 nM on CDK4/Cyclin D1.

Take `CC(C)c1c(C(C)(C)O)cnc2cc(F)c(-c3nc(N[C@@H]4CCOC[C@H]4O)ncc3F)cc12` [Example 116, (3S,4R)-4-((5-fluoro-4-(7-fluoro-3-(2-hydroxypropan-2-yl)-4-isopropylquinolin-6-yl)pyrimidin-2-yl)amino)tetrahydro-2H-pyran-3-ol]: the IC50 turned out to be 198 nM on CDK6/Cyclin D3 and 10.9 nM at CDK4/Cyclin D1.

Take `CC(C)c1c(CN2CCCOCC2)cnc2ccc(-c3nc(N[C@@H]4CCOC[C@H]4O)ncc3F)cc12` [Example 44, (3S,4R)-4-((4-(3-((1,4-oxazepan-4-yl)methyl)-4-isopropylquinolin-6-yl)-5-fluoropyrimidin-2-yl)amino)tetrahydro-2H-pyran-3-ol]: the IC50 on CDK6/Cyclin D3 is 475 nM; at CDK4/Cyclin D1, 25 nM.

Regarding `CC(C)c1c(CNC2CCOCC2)cnc2ccc(-c3nc(N[C@@H]4CCOC[C@H]4O)ncc3F)cc12` [Example 29, (3S,4R)-4-((5-fluoro-4-(4-isopropyl-3-(((tetrahydro-2H-pyran-4-yl)amino)methyl)quinolin-6-yl)pyrimidin-2-yl)amino)tetrahydro-2H-pyran-3-ol], the IC50 was 860 nM at CDK6/Cyclin D3 and 20 nM on CDK4/Cyclin D1.

Take `CC(C)c1c(CNc2ccccn2)cnc2ccc(-c3nc(N[C@@H]4CCOC[C@H]4O)ncc3F)cc12` [Example 59, (3S,4R)-4-((5-fluoro-4-(4-isopropyl-3-((pyridin-2-ylamino)methyl)quinolin-6-yl)pyrimidin-2-yl)amino)tetrahydro-2H-pyran-3-ol]: the values for the IC50 on CDK6/Cyclin D3 and at CDK4/Cyclin D1 were 3590 nM and 46 nM, respectively.

On to `CC(C)c1c(CN[C@@H]2CCOC2)cnc2ccc(-c3nc(N[C@@H]4CCOC[C@H]4O)ncc3F)cc12` [Example 40, (3S,4R)-4-((5-fluoro-4-(4-isopropyl-3-((((R)-tetrahydrofuran-3-yl)amino)methyl)quinolin-6-yl)pyrimidin-2-yl)amino)tetrahydro-2H-pyran-3-ol], for which the 50% inhibitory concentration (IC50) at CDK6/Cyclin D3 was 759 nM; on CDK4/Cyclin D1, 33 nM.

Turning to `CC(C)c1c(C(C)(C)O)cnc2c(F)cc(-c3nc(N[C@@H]4CCOC[C@H]4O)ncc3Cl)cc12` [Example 117, (3S,4R)-4-((5-chloro-4-(8-fluoro-3-(2-hydroxypropan-2-yl)-4-isopropylquinolin-6-yl)pyrimidin-2-yl)amino)tetrahydro-2H-pyran-3-ol], the IC50 on CDK6/Cyclin D3 is 54 nM; on CDK4/Cyclin D1 it was 2.1 nM.

Regarding `Cc1c(-c2nc(N[C@@H]3CCOC[C@H]3O)ncc2F)ccc2ncc(CN)c(C(C)C)c12` [Example 145, (3S,4R)-4-((4-(3-(aminomethyl)-4-isopropyl-5-methylquinolin-6-yl)-5-fluoropyrimidin-2-yl)amino)tetrahydro-2H-pyran-3-ol], the IC50 came to 66.1 nM at CDK6/Cyclin D3 and 1.7 nM at CDK4/Cyclin D1.

On to `CC(C)c1c([C@H](C)N)cnc2ccc(-c3nc(N[C@@H]4CCOC[C@H]4O)ncc3F)cc12` [Example 55, (3S,4R)-4-((4-(3-((S)-1-aminoethyl)-4-isopropylquinolin-6-yl)-5-fluoropyrimidin-2-yl)amino)tetrahydro-2H-pyran-3-ol], for which the concentration for half-maximal inhibition (IC50) on CDK6/Cyclin D3 came to 1090 nM; at CDK4/Cyclin D1, 34 nM.

Turning to `CC(C)c1c(CNC2CCCCC2)cnc2ccc(-c3nc(N[C@@H]4CCOC[C@H]4O)ncc3F)cc12` [Example 28], the IC50 on CDK6/Cyclin D3 worked out at 703 nM; at CDK4/Cyclin D1, 19 nM.

Take `CC(C)c1c(CNC2CCCC2)cnc2ccc(-c3nc(N[C@@H]4CCOC[C@H]4O)ncc3F)cc12` [Example 26, (3S,4R)-4-((4-(3-((cyclopentylamino)methyl)-4-isopropylquinolin-6-yl)-5-fluoropyrimidin-2-yl)amino)tetrahydro-2H-pyran-3-ol]: the 50% inhibitory concentration (IC50) at CDK6/Cyclin D3 came out at 990 nM; on CDK4/Cyclin D1, 33 nM.

In the case of `CC(C)c1c(CNc2ncccn2)cnc2ccc(-c3nc(N[C@@H]4CCOC[C@H]4O)ncc3F)cc12` [Example 45, (3S,4R)-4-((5-fluoro-4-(4-isopropyl-3-((pyrimidin-2-ylamino)methyl)quinolin-6-yl)pyrimidin-2-yl)amino)tetrahydro-2H-pyran-3-ol], the IC50 on CDK6/Cyclin D3 was found to be 286 nM; at CDK4/Cyclin D1, 22 nM.

As to `CC(C)c1c(CN[C@H]2CCOC2)cnc2ccc(-c3nc(N[C@@H]4CCOC[C@H]4O)ncc3F)cc12` [Example 39, (3S,4R)-4-((5-fluoro-4-(4-isopropyl-3-((((S)-tetrahydrofuran-3-yl)amino)methyl)quinolin-6-yl)pyrimidin-2-yl)amino)tetrahydro-2H-pyran-3-ol], the IC50 at CDK6/Cyclin D3 was 750 nM; on CDK4/Cyclin D1, 25 nM.

Regarding `Cc1c(-c2nc(N[C@@H]3CCOC[C@H]3O)ncc2F)ccc2nccc(C(C)C)c12` [Example 9, (3S,4R)-4-((5-fluoro-4-(4-isopropyl-5-methylquinolin-6-yl)pyrimidin-2-yl)amino)tetrahydro-2H-pyran-3-ol], the IC50 on CDK6/Cyclin D3 stood at 92.4 nM; on CDK4/Cyclin D1, 21 nM.

As for `CC(C)c1c(CNc2cnn(C)c2)cnc2ccc(-c3nc(N[C@@H]4CCOC[C@H]4O)ncc3F)cc12` [Example 43, (3S,4R)-4-((5-fluoro-4-(4-isopropyl-3-(((1-methyl-1H-pyrazol-4-yl)amino)methyl)quinolin-6-yl)pyrimidin-2-yl)amino)tetrahydro-2H-pyran-3-ol], the 50% inhibitory concentration (IC50) was found to be 533 nM at CDK6/Cyclin D3 and 41 nM on CDK4/Cyclin D1.

With `CC(C)c1c(CN2CC(O)C2)cnc2ccc(-c3nc(N[C@@H]4CCOC[C@H]4O)ncc3F)cc12` [Example 16, 1-((6-(5-fluoro-2-(((3S,4R)-3-hydroxytetrahydro-2H-pyran-4-yl)amino)pyrimidin-4-yl)-4-isopropylquinolin-3-yl)methyl)azetidin-3-ol], the IC50 at CDK6/Cyclin D3 was 600 nM; at CDK4/Cyclin D1 it was 15 nM.

As usually defined, the IC50 is the midpoint of a concentration-inhibition curve.
